Laboratory results reported in US12128062B2, “Methods for targeting pain directed at metabolic pathways” (UNIVERSITY OF MARYLAND, BALTIMORE, priority 2018, dated 2024).

Tests used:
[1] = tested on: L4-6 DRG cultures (sensory neurons); assay: Extracellular flux analysis (Seahorse XFp): glutamine oxidation-dependent oxygen consumption rate of dissociated L4-6 DRG cultures from IT-treated mice; assay type: cell-based, mouse; conditions: glutamine 2 mM; for increase in oxygen consumption rate (OCR) in response to glutamine addition: DRG cultures from mice given 1 μg IT one day earlier, baseline OCR subtracted; for time over which the glutamine-induced OCR increase lasts: DRG cultures from mice given 1 μg IT
Procedure: (§1) In this experiment, mice were injected with 1 μg of teRNA or teRNAmm intrathecally (IT). The next day L4-6 DRGs were dissected and acutely dissociated for extracellular flux analysis. One day post teRNA and teRNA mm injection L4-6 DRGs were dissected and proteins were extracted for western blot analysis. In an independent experiment, mice received plantar incision and were allowed to recover. On day 10 baseline measurements were performed, which was followed by intraplantar injection of PGE2. Allodynia testing was preformed form on days 14, 15, 21 and 24. Intrathecal teRNA or teRNAmm (1 μg) were injected on day 14 following the allodynia testing.
In this experiment, L4-6 DRGs were dissected form naïve, teRNAmm and teRNA treated mice. Lumbar 4-6 DRGs were placed in Hank's Buffered Salt Solution (HBSS, Thermo Fisher, Cat #14170112) on ice. The ganglia were dissociated enzymatically with collagenase A (1 mg/ml, 25 min, Millipore Sigma, Cat #10103578001) and collagenase D (1 mg/ml, Millipore Sigma, Cat #11088858001) with papain (30 U/ml, Millipore Sigma, Cat #10108014001) for 20 min at 37° C. To eliminate debris and large diameter sensory neurons, 70 μm (Thermo Fisher, Cat #087712) cell strainers were used. The dissociated cells were resuspended in DMEM/F12 (Thermo Fisher, Cat #10565042) containing 1× pen-strep (Thermo Fisher, Cat #15070063) and 10% fetal bovine serum (Millipore Sigma, Cat #F2442). The cells were plated in Seahorse XFp Cell Culture Miniplate (Agilent, Cat #103025-100). These cultures were incubated overnight at 37° C. in a humidified 95% air/5% CO2 incubator. The metabolic changes were characterized by analyzing the glycolysis and oxidative phosphorylation rates of sensory neurons using extracellular flux analyzer, Seahorse XFp (Agilent). Dissociated L4-6 primary afferents were incubated in DMEM (Millipore Sigma, Cat #D5030) without glutamine, pyruvate or glucose, Baseline oxygen consumption rate (OCR) measurements were followed by the addition of glutamine (2 mM). The baseline OCR values were subtracted from each of the other values to determine glutamine oxidation-dependent OCR.

[2] = Hyperalgesic priming model (plantar incision then intraplantar PGE2), tactile thresholds by von Frey filaments; assay type: in vivo, mouse
Description: The hyperalgesic priming model was utilized in the experiments because it is well-characterized and used to study the neuroplasticity underlying persistent pain sensitization and the transition of acute pain to chronic pain [13-17]. As shown at the top FIG. 2, the model is comprised of three phases. 1) The acute phase, also called the induction phase, causes transient tactile hypersensitivity in response to various pro-nociceptive compounds and resolves within a week. The hindpaw plantar incision model was used for the acute phase, which comprises incision of the skin, the underlying fascia, and the plantar flexor digitorum brevis muscle as the initial injury. This model was selected since it lacks injury to major peripheral nerves and typically resolves within a week. 2) The primed phase follows the acute phase. The animals are not hypersensitive and this phase can last for at least 3 weeks.
In this experiment, mice received plantar incision and their tactile thresholds were determined using von Frey filaments. Mice were placed in small cages with a mesh floor individually. Calibrated monofilaments of differing forces are applied perpendicularly to the hind paw. Withdraws, licking or flinching of the paw in response to the filament is considered a positive response. The results are provided in FIG. 2A where “Threshold (grams)” on the y-axis represents the amount of force required for the mice to withdraw the hindpaw before (baseline, BL) and after the incision. Reduced withdrawal threshold indicates increased pain.
In this experiment, the same mice used in the acute phase were allowed to recover and on Day 10 received intraplantar PGE2. The results are provided in FIG. 2B where “Threshold (grams)” on the y-axis represents the amount of force required for the mice to withdraw their hindpaw which is an indication of tactile hypersensitivity and pain. […] 1, 2, 3 and 4 days post-PGE2 injection, *** P<0.001. […] PGE2 injection caused profound allodynia in mice that had plantar incision.
as §1, with “testing. […]” for “testing.”

[3] = Bortezomib-induced CIPN (neuropathic pain) mouse model, tactile thresholds / allodynia; assay type: in vivo
Procedure: teRNA was administered to mice which have developed neuropathic pain due to bortezomib treatment. In this experiment, mice were treated with intraperitoneal 0.2 mg/kg of bortezomib (Millipore Sigma, Cat #5.04314.0001) for 5 consecutive days for a total dose of 1 mg/kg. The vehicle group received intraperitoneal saline for 5 consecutive days. The mice that receive bortezomib develop profound allodynia. The efficacy of teRNA for treating and preventing the development of bortezomib-induced neuropathic pain was explored.
Treatment with bortezomib (bort) from day 0-4 (black arrow) led to the development of severe neuropathic pain. Baseline thresholds were measured on day 0 and allodynia was tested on days 14, 15, 17 and 21.
In a second experiment, mice were treated with either saline or bortezomib on days 0-4 (intraperitoneal 0.2 mg/kg of bortezomib for 5 consecutive days for a total dose of 1 mg/kg). On day 7 mice that received bortezomib developed profound neuropathic pain.
To determine if teRNA can prevent the development of chemotherapy-induced neuropathic pain, mice were co-treated with IT teRNA (days 0, 2 and 4) and intraperitoneal (IP) bortezomib (days 0-4) (intraperitoneal 0.2 mg/kg of bortezomib for 5 consecutive days for a total dose of 1 mg/kg).

ASCT2 = assay: Western blot of ASCT2 protein in L4-6 DRGs after intrathecal injection; assay type: in vivo, mouse; conditions: IT 1 μg, DRGs dissected 24 hrs post injection; versus teRNAmm control
Procedure: Western blot (WB) analyses were performed to examine changes in metabolic genes that are known to regulate pyruvate and glutamine oxidation. In these experiments, lumbar 4-6 dorsal root ganglia (L4-6 DRGs) which innervate the hindpaw were dissected on Day 1, 9 and 14 post-plantar incisions (as described above). Protein was extracted from the L4-6 DRGs in lysis buffer (50 mM Tris HCl, 1% Triton X-100, 150 mM NaCl, and 1 mM EDTA at pH 7.4) containing protease and phosphatase inhibitor mixtures with an ultrasonicator on ice, and cleared of cellular debris by centrifugation at 14,000 relative centrifugal force for 15 min at 4° C. Fifteen micrograms of protein per well were loaded and separated by standard 7.5% or 10% SDS-PAGE. Proteins were transferred to Immobilon-P membranes (Millipore Sigma, Cat #IPVH00010) and then blocked with 5% dry milk for 3 h at room temperature. The blots were incubated with primary antibody overnight at 4° C. and detected the following day with donkey anti-rabbit or goat anti-mouse antibody conjugated to horseradish peroxidase (1:10,000, Jackson Immunoresearch, Cat #711-036-152, Cat #115-036-062). Signal was detected by enhanced chemiluminescence on films. For assessment of phospho-proteins, membranes were stripped and reprobed for total-protein of interest for normalization. Densitometric analyses were done using UN-SCAN-IT 7.1 software (Silk Scientific Corp.). […]

[4] = single IT 1 μg, 14 days post plantar incision (4 days post PGE2)
[5] = IT 1 μg on days 7, 9 and 11, bortezomib IP 0.2 mg/kg days 0-4
[6] = single IT 1 μg on day 14, bortezomib IP 0.2 mg/kg days 0-4

Substance | increase in oxygen consumption rate (OCR) in response to glutamine addition [1] | time over which the glutamine-induced OCR increase lasts [1] | effect on tactile hypersensitivity / tactile thresholds, incision group [2, 4] | effect on existing bortezomib-induced neuropathic pain, repeated treatment [3, 5] | effect on bortezomib-induced neuropathic pain / tactile thresholds, single treatment [3, 6] | ASCT2 protein in L4-6 DRGs (ASCT2) | effect on tactile thresholds of the control group (no incision) ([2]; single IT 1 μg on day 14) | duration of alleviation of tactile hypersensitivity, incision group [2, 4] | duration of pain relief, repeated treatment [3, 5] | prevention of development of bortezomib-induced neuropathic pain, co-treatment ([3]; IT on days 0, 2 and 4 with IP bortezomib 0.2 mg/kg days 0-4) | time post the initiation of bortezomib treatment up to which existing neuropathic pain was alleviated ([3]; IT on days 7, 9 and 11, bortezomib days 0-4) | duration of alleviation of bortezomib-induced neuropathic pain, single treatment [3, 6]
5′-CAUACUACGCCGUAGC-3′ (2'-O-methyl modifications, further chemistry not given here) [teRNAmm, reference compound] | 10% | ≤ 30 min | did not display any change in their tactile thresholds | did not impact the bortezomib-induced neuropathic pain | did not impact the tactile thresholds | – | – | – | – | – | – | –
5′-CAUAGAUCCGGGAUGC-3′ (2'-O-methyl modifications, further chemistry not given here) [teRNA] | around 20% | at least 30 mins | alleviated tactile hypersensitivity | prolonged pain relief | reversed the bortezomib-induced neuropathic pain | robust increase | did not affect the tactile thresholds | at least 7 days | at least 2 weeks | prevented the development of bortezomib-induced neuropathic pain | at least 21 days | several days
